Columns and labels:
diabetic mice = assay: glucose challenge after patch or injection in diabetic mice (Example 41); type: in vivo, C57bl/6 mice; settings: 12.0 IU/kg, glucose 1.5 g/kg i.p. after 2.5 h, compared with normal group
Method: 1.5 mg of M3-2 was added into 0.5 mL of ultrapure water, ultrasonically dispersed evenly. 0.25 g of hyaluronic acid (HA) was added, and stirred at room temperature until a homogeneous system was obtained to obtain an HA aqueous solution of M3-2, which was used as a pouring material of microneedle (Microneedles, MNs). 1 g of HA was added to 1 mL of ultrapure water and stirred at room temperature until clear and transparent to obtain a blank solution of HA, which was used as the base material of MNs. 50 μL HA aqueous solution of M3-2 was taken and added to the surface of the mold. […]
C57bl/6 mice (male, 4-6 weeks) were selected and fed adaptively for two weeks at room temperature of 24° C.±1° C., humidity of 55% for 12 h with bright cycle (8:00-20:00) with adequate water and feed. […] Fasting blood glucose was measured on the 3rd, 5th, 7th, 10th, and 21st days, and it was a stable diabetes model if it was greater than 16.65 mmol/L.
2 groups of diabetic mice and 1 group of normal mice (4 mice in each group) were taken. […] After 2.5 h of injection or patch, glucose (1.5 g/kg) was intraperitoneally injected into mice in the diabetes group and the normal group, and the blood sugar was detected.

diabetic rats [1] = assay: glucose challenge 2.5 h after injection in diabetic rats (Example 38); type: in vivo, wistar rats; settings: 4.1 IU subcutaneous in the neck, glucose 1.5 g/kg i.p. after 2.5 h, compared with normal group
Method: Male wistar rats of 4-6 weeks were selected and fed for two weeks. streptozotocin (STZ) was administered once in a dose of 180 mg/kg (administered according to the specific body weight of the rat). The STZ was weighed according to the weight of the rat, put in a sterilized bottle, then wrapped with tinfoil. The sodium citrate buffer solution and the STZ bottle were brought into the animal room under ice bath conditions. A sodium citrate buffer solution with a concentration of 1% STZ (1 g/100 ml) was prepared, and injected into the tail vein within 30 minutes to prevent inactivation. After injection of STZ, adequate drinking water and feed were given every day. Fasting blood sugar was measured on the 1st day, 7th day, and 10th day. If it was greater than 16.65 mmol/L, it was a stable diabetes model. 2 groups of diabetic rats and 1 group of normal rats (4 rats in each group) were taken. Diabetic rat groups were subcutaneously injected with (1) 2.0 mg M3-2 (4.1 IU) and (2) insulin (4.1 IU) in the neck respectively. After 2.5 h of injection, g lucose (1.5 g/kg) was intraperitoneally injected into rats in the diabetes group and the normal group, and the blood sugar was detected.

diabetic rats [2] = assay: blood sugar of diabetic rats after subcutaneous injection (Example 37); type: in vivo, wistar rats; settings: same dose (4.1 IU)
Method: Male wistar rats of 4-6 weeks were selected and fed for two weeks. streptozotocin (STZ) was administered once in a dose of 180 mg/kg (administered according to the specific body weight of the rat). The STZ was weighed according to the weight of the rat, put in a sterilized bottle, then wrapped with tinfoil. The sodium citrate buffer solution and the STZ bottle were brought into the animal room under ice bath conditions. A sodium citrate buffer solution with a concentration of 1% STZ (1 g/100 ml) was prepared, and injected into the tail vein within 30 minutes to prevent inactivation. After injection of STZ, adequate drinking water and feed were given every day. Fasting blood sugar was measured on the 1st day, 7th day, and 10th day. If it was greater than 16.65 mmol/L, it was a stable diabetes model. Diabetic rats were taken and divided into 4 groups (4 rats in each group). The group of diabetic rats were subcutaneously injected (1) 1.5 mg M3-2, (2) 2.0 mg M3-2 (4.1 IU), (3) 1.0 mL PBS buffer solution and (4) insulin (4.1 IU). Blood sugar in rats was monitored for a period of time after injection.

insulin
blood sugar regulation after intraperitoneal glucose (diabetic mice): the blood sugar quickly rises to a higher blood sugar level after glucose injection
blood sugar regulation after intraperitoneal glucose (diabetic rats [1]): the blood sugar quickly returns to a higher blood sugar level
duration of blood glucose at 100-200 mg/dL (diabetic rats [2]): 4.5 h
